26 molecules from patent publication US20250230226A1, “PLXDC1/PLXDC2 ACTIVATORS AND THEIR USE IN THE TREATMENT OF BLOOD VESSEL DISORDERS” (THE REGENTS OF THE UNIVERSITY OF CALIFORNIA, priority 2019, published 2025) can be followed below.

Assay [1] has as its system CT26.CL25 colon cancer tumor endothelial cells. Put plainly: Colon CT26 ex vivo model of tumor angiogenesis. The assay is classed as cell-based, mouse. Conditions: for 48 hrs (morphology observations after 48 hours): Conc. 40 μm; for cytotoxicity at 40 µM: Mus musculus, Endothelial cell, 48 h, read-out: Cell death. How it is done:
An ex vivo tumor angiogenesis model was developed to test the efficacy of anti-cancer candidate agents. The following protocol describes the Ex Vivo Tumor Angiogenesis Model.
• 1. The day before the experiment, all necessary tools were sprayed with 70% ethanol and sterilized under UV light overnight, including blade, dissecting and micro-dissecting scissors and […]. 24-well dishes were placed at 4° C. to pre-chill plates and Matrigel was thawed, 24 hours before tumor dissection. • 2. 70% ethanol was sprayed on working bench. Two sterile petri dishes were prepared with 10 ml sterile PBS. The following steps 3 and 4 are necessary for mouse tumor models. For fresh human tumor, steps 3 and 4 are skipped. • 3. The tumor-bearing mice were euthanized. 70% ethanol was sprayed on the mouse and the tumor was removed using sterilized dissecting tools (avoid the fur). The tumor was rinsed in petri dish with sterile PBS to remove ethanol and fur. The tumor was transferred to a new petri dish with PBS for dissection. The dish is placed on ice. • 4. Pre-chilled sterile pipet tips were used to seed regular Matrigel in 24 well plates on ice. Matrigel (30 μl) was dropped in the middle of each well without touching the edge of the well (avoid introducing bubbles if possible). • 5. The tumor was cut in halves using the sterile blade. Healthy tumor tissue that is not necrotic and is within the tumor capsule was identified and isolated. The healthy tumor tissue was cut into small pieces. For instance, a suitable size for the tumor tissue is 0.5 mm (H)×0.5 mm (L)×0.3 mm (D) with a total volume of 0.075 mm^3. • 6. Each tumor piece was gently transferred and embedded in the Matrigel drop in the 24-well plate. The embedded piece was placed in the bottom and middle of each Matrigel drop. The plate was kept on ice all the time. • 7. After seeding the tumor pieces, plates were incubated in a 37° C. cell culture incubator without medium for 10 minutes in order for the Matrigel to solidify. • 8. Endothelial Growth Medium (0.5 ml) was added to each well and incubated at 37° C. with 5% CO2. Treatment was not added until the new endothelial cells was grown out of the tumor or were larger than 3 mm in diameter. This usually takes 4 days for the LL2 Lewis lung cancer model and 7 days for the CT26 colon cancer model. For human tumor models, the growth time is typically 2-3 weeks, depending on the tumor type. Media was changed every 4 days during prolonged culture. Typically, when the tumor tissue grows to 2 mm in diameter, it was good for drug testing. A size of about 3 mm in diameter can make visualization easier. • 9. When the assay was ready to be analyzed for cell death (e.g., 48 hours after drug addition), the dye mixture was prepared by mixing 6 μl of green dye to stain live cells (5 mg/ml Fluorescein diacetate or FDA in DMSO) with 30 μl of red dye (2.5 mg/ml Propidium iodide or PI in PBS) to stain dead cells in an Eppendorf tube. The FDA dye needs to be stored frozen in a −20° C. freezer because it has a labile ester bond. • 10. 1 μl of the dye mixture was added to each well of the 24-well dish. It is usually preferred to do one 24-well dish at a time given the amount of time needed to take pictures (the green dye is not as stable in the cells in the long term). • 11. The dish was gently rocked a few times to mix the dye with the media in the wells and incubate the dish at 37° C. for 10 min (too long incubation can make the green signal too intense). • 12. Each well was washed with 0.5 ml of sterile PBS and then 0.5 ml of phenol red free SFM was added to each well. Alternatively 0.5 ml of regular Endothelial Cell Growth Media can be added to each well if this well needs to be continuously maintained after the experiment. • 13. An inverted microscope using the 2× objective lens was used to observe morphological changes in the experimental wells. • 14. […]

Assay [2] relates to LL/2 lung cancer tumor endothelial cells. Nature of the assay: Lung LL2 ex vivo model of tumor angiogenesis. The class given is cell-based, mouse. Conditions: for Cell death / 48 hrs (morphology observations): 40 μm; for Cell death: drug treatment for two days, ratio of red area to total endothelial cell area; for 48 hrs (morphology observations): LL/2 tumor endothelial cells; for cytotoxicity at 40 µM: Mus musculus, Endothelial cell, 48 h, read-out: Cell death. The procedure, abridged: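 LL2 mouse tumor fragments (~0.075 mm³) embedded in Matrigel and cultured in endothelial growth medium at 37 °C until endothelial outgrowth (~4 days) before treatment. Cell death assessed e.g. 48 h after drug by fluorescein diacetate (live)/propidium iodide (dead) staining and red/green fluorescence imaging.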

In the case of `CCc1ccc(S(=O)(=O)c2cnc3ccc(OC(F)(F)F)cc3c2N2CCCN(CC(=O)O)CC2)cc1` [Compound 42], in assay [1], the “48 hrs (morphology observations after 48 hours)” value was 0 and the cytotoxicity at 40 µM was 0%. Besides, in assay [2], the Cell death is recorded as 30%.

As to `COc1ccc(S(=O)(=O)c2cnc3ccc(OC(F)(F)F)cc3c2N2CCC(N3CCCCC3)CC2)cc1` [Compound 43], in assay [1], the “48 hrs (morphology observations after 48 hours)” value is on record as “*** (100% of endothelial cells vesicularize in cell shape)” and the cytotoxicity at 40 µM worked out at 90%. In addition, in assay [2], the “48 hrs (morphology observations)” value is listed as “*** (more than 50% but less than 100% of endothelial cells vesicularize in cell shape)” and the Cell death worked out at 100%.

Consider `COc1ccc(S(=O)(=O)c2cnc3ccc(OC(F)(F)F)cc3c2N2CCC(O)CC2)cc1` [Compound 44], for which, in assay [1], the “48 hrs (morphology observations after 48 hours)” value worked out at 0 and the cytotoxicity at 40 µM is 0%. For the same molecule, the Cell death in assay [2] stood at 50%.

For `CCc1ccc(S(=O)(=O)c2cnc3ccc(OC(F)(F)F)cc3c2N2CCN(c3ccc(C#N)cc3)CC2)cc1` [Compound 45], in assay [1], the “48 hrs (morphology observations after 48 hours)” value was found to be 0 and the cytotoxicity at 40 µM amounted to 0%. Moreover, the cytotoxicity at 40 µM in assay [2] was found to be 10%.

In the case of `CCc1ccc(S(=O)(=O)c2cnc3ccc(OC(F)(F)F)cc3c2N2CCC(N3CCCC3)CC2)cc1` [Compound 46], in assay [1], the “48 hrs (morphology observations after 48 hours)” value was “**** (100% of endothelial cells vesicularize in cell shape and look flattened in morphology (indicating disintegration of the cell body))”; the cytotoxicity at 40 µM is 100%. Besides, in assay [2], the “48 hrs (morphology observations)” value is “**** (100% of endothelial cells vesicularize in cell shape and look flattened in morphology (indicating disintegration of the cell body))”; the cytotoxicity at 40 µM was 100%.

Take `CCOC(=O)C1CCN(c2c(S(=O)(=O)c3ccc(CC)cc3)cnc3ccc(OC(F)(F)F)cc23)CC1` [Compound 47]: in assay [1], the “48 hrs (morphology observations after 48 hours)” value is on record as 0 and the cytotoxicity at 40 µM came to 10%. In addition, in assay [2], the Cell death came out at 50%.

As for `CCc1ccc(S(=O)(=O)c2cnc3ccc(OC(F)(F)F)cc3c2N2CCC(CO)CC2)cc1` [Compound 48], in assay [1], the “48 hrs (morphology observations after 48 hours)” value is given as 0 and the cytotoxicity at 40 µM was determined as 10%. Moreover, the Cell death in assay [2] worked out at 60%.

For `CCc1ccc(S(=O)(=O)c2cnc3ccc(OC(F)(F)F)cc3c2N(C)Cc2ccccc2)cc1` [Compound 49], in assay [1], the “48 hrs (morphology observations after 48 hours)” value was determined as 0 and the cytotoxicity at 40 µM was 10%. In addition, in assay [2], the Cell death was 30%.

As to `CCc1ccc(S(=O)(=O)c2cnc3ccc(OC(F)(F)F)cc3c2NN2CCN(C)CC2)cc1` [Compound 50], in assay [1], the “48 hrs (morphology observations after 48 hours)” value was “*** (100% of endothelial cells vesicularize in cell shape)” and the cytotoxicity at 40 µM was 100%. In assay [2], the “48 hrs (morphology observations)” value is on record as “*** (more than 50% but less than 100% of endothelial cells vesicularize in cell shape)” and the Cell death came to 90%.

Consider `CCc1ccc(S(=O)(=O)c2cnc3ccc(OC(F)(F)F)cc3c2-n2cncn2)cc1` [Compound 51], for which, in assay [1], the “48 hrs (morphology observations after 48 hours)” value was “*** (100% of endothelial cells vesicularize in cell shape)” and the cytotoxicity at 40 µM is 20%. Further, in assay [2], the “48 hrs (morphology observations)” value was “**** (100% of endothelial cells vesicularize in cell shape and look flattened in morphology (indicating disintegration of the cell body))”; the Cell death amounted to 100%.

As to `CCc1ccc(S(=O)(=O)c2cnc3ccc(OC(F)(F)F)cc3c2N2CCC3(CC2)OCCO3)cc1` [Compound 52], in assay [1], the “48 hrs (morphology observations after 48 hours)” value was found to be 0 and the cytotoxicity at 40 µM was determined as 0%. The Cell death in assay [2] came out at 50%.

In the case of `N#Cc1ccc(S(=O)(=O)c2cnc3ccc(OC(F)(F)F)cc3c2N2CCC(N3CCCCC3)CC2)cc1` [Compound 54], in assay [1], the “48 hrs (morphology observations after 48 hours)” value is given as 0 and the cytotoxicity at 40 µM turned out to be 10%. Further, in assay [2], the Cell death worked out at 50%.

With `CCOC(=O)c1ccc2ncc(S(=O)(=O)c3ccc(OC)cc3)c(N3CCC(N4CCCCC4)CC3)c2c1` [Compound 136], in assay [1], the “48 hrs (morphology observations after 48 hours)” value is 0 and the cytotoxicity at 40 µM stood at 30%.

With `CCOC(=O)c1ccc2ncc(S(=O)(=O)c3ccc(OC)cc3)c(N3CCCC(O)C3)c2c1` (centres unmarked) [Compound 137], in assay [1], the “48 hrs (morphology observations after 48 hours)” value is listed as 0 and the cytotoxicity at 40 µM worked out at 40%.

On to `CCOC(=O)c1ccc2ncc(S(=O)(=O)c3ccc(OC)cc3)c(N3CCC(N4CCC(O)CC4)CC3)c2c1` [Compound 138], for which, in assay [1], the “48 hrs (morphology observations after 48 hours)” value is 0 and the cytotoxicity at 40 µM is 20%.

As to `CCOC(=O)c1ccc2ncc(S(=O)(=O)c3ccc(OC)cc3)c(N3CCCN(CCN(CC)CC)CC3)c2c1` [Compound 139], in assay [1], the “48 hrs (morphology observations after 48 hours)” value came to 0 and the cytotoxicity at 40 µM came to 40%.

As to `CCOC(=O)c1ccc2ncc(S(=O)(=O)c3ccc(OC)cc3)c(N3CCC(OCCN(CC)CC)CC3)c2c1` [Compound 140], in assay [1], the “48 hrs (morphology observations after 48 hours)” value was “** (more than 50% but less than 100% of endothelial cells vesicularize in cell shape)” and the cytotoxicity at 40 µM turned out to be 60%.

`CCOC(=O)c1ccc2ncc(S(=O)(=O)c3ccc(OC)cc3)c(N3CCCN(C)CC3)c2c1` [Compound 144]: in assay [1], the “48 hrs (morphology observations after 48 hours)” value stood at 0 and the cytotoxicity at 40 µM turned out to be 30%.

Take `CCc1ccc(S(=O)(=O)c2cnc3ccc(OC(F)(F)F)cc3c2N2CCC(O)(c3ccc(OC)cc3)CC2)cc1` [Compound 145]: in assay [1], the “48 hrs (morphology observations after 48 hours)” value is given as 0 and the cytotoxicity at 40 µM was determined as 30%.

Regarding `COc1ccc(S(=O)(=O)c2cnc3ccc(OC(F)(F)F)cc3c2N2CCC(O)(c3cccc(OC)c3)CC2)cc1` [Compound 146], in assay [1], the “48 hrs (morphology observations after 48 hours)” value amounted to 0 and the cytotoxicity at 40 µM is 0%.

Consider `CCc1ccc(S(=O)(=O)c2cnc3ccc(OC(F)(F)F)cc3c2N2CCC(O)(c3ccc4c(c3)OCO4)CC2)cc1` [Compound 147], for which, in assay [1], the “48 hrs (morphology observations after 48 hours)” value amounted to 0 and the cytotoxicity at 40 µM is 0%.

Consider `CCOC(=O)c1ccc2ncc(S(=O)(=O)c3ccc(CC)cc3)c(N3CCC(O)(c4ccc(OC)cc4)CC3)c2c1` [Compound 148], for which, in assay [1], the “48 hrs (morphology observations after 48 hours)” value turned out to be 0 and the cytotoxicity at 40 µM came to 0%.

Consider `CCOC(=O)c1ccc2ncc(S(=O)(=O)c3ccc(CC)cc3)c(N3CCC(O)(c4cccc(OC)c4)CC3)c2c1` [Compound 149], for which, in assay [1], the “48 hrs (morphology observations after 48 hours)” value is “* (50% or less of cells vesicularize in cell shape)” and the cytotoxicity at 40 µM is 20%.

With `CCc1ccc(S(=O)(=O)c2cnc3ccc(OC(F)(F)F)cc3c2N2CCC(O)(c3cccc(OC)c3)CC2)cc1` [Compound 150], in assay [1], the “48 hrs (morphology observations after 48 hours)” value stood at 0 and the cytotoxicity at 40 µM worked out at 10%.

Consider `COc1ccc(S(=O)(=O)c2cnc3ccc(SC)cc3c2N2CCC(N3CCC(O)CC3)CC2)cc1OC` [Compound 153], for which, in assay [1], the “48 hrs (morphology observations after 48 hours)” value is listed as “* (50% or less of cells vesicularize in cell shape)” and the cytotoxicity at 40 µM is 20%.

As for `CCCCOc1ccc(S(=O)(=O)c2cnc3ccc(SC)cc3c2N2CCCN(CCN3CCCC3)CC2)cc1` [Compound 207], in assay [1], the “48 hrs (morphology observations after 48 hours)” value is “**** (100% of endothelial cells vesicularize in cell shape and look flattened in morphology (indicating disintegration of the cell body))”; the cytotoxicity at 40 µM was 100%.
